Reference: patent US10058550B2, “Methods of treating heart failure” (priority 2015, dated 2018)

Target: human APJ receptor (Homo sapiens (Human), UniProt P35414)
Assay: biochemical
Type: biochemical
Conditions: read-out: Activity hAPJ SPA EC50 IP
Procedure, shortened: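 Membranes from CHO cells stably expressing cloned human APJ were incubated with WGA SPA beads in 20 mM HEPES pH 7.5, 5 mM MgCl2, 0.1% BSA, 200 mM NaCl and 3 μM GDP. Reaction started with 0.2 nM [35S]GTPγS ± ligands, 90 min at RT. EC50 obtained by non-linear regression as mean of independent experiments.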

human APJ receptor, sequence (P35414 whole entry): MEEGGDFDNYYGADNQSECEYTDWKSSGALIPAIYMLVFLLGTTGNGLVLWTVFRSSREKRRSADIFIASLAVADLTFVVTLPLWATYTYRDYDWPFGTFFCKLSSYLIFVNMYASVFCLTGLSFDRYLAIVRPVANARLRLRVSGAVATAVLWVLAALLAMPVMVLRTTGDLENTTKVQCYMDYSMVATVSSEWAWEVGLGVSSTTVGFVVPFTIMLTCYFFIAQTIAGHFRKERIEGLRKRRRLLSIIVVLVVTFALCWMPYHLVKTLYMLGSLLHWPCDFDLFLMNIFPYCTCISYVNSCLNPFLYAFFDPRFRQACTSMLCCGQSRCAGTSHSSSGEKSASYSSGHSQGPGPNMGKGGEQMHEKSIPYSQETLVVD

Row | Structure (SMILES) | EC50 [nM]
1 | COc1cccc(OC)c1-n1c(NS(=O)(=O)[C@H](C)[C@H](O)c2ncc(F)cn2)nnc1-c1cncc(C)c1 (single isomer, unassigned) [Example 358.0, (1R,2R)—N-(4-(2,6-dimethoxyphenyl)-5-(5-methylpyridin-3-yl)-4H-1,2,4-triazol-3-yl)-1-(5-fluoropyrimidin-2-yl)-1-hydroxypropane-2-sulfonamide or (1S,2S)—N-(4-(2,6-dimethoxyphenyl)-5-(5-methylpyridin-3-yl)-4H-1,2,4-triazol-3-yl)-1-(5-fluoropyrimidin-2-yl)-1-hydroxypropane-2-sulfonamide] | 69
2 | COc1cccc(OC)c1-n1c(NS(=O)(=O)[C@H](C)[C@@H](OCCO)c2ncc(C)cn2)nnc1-c1cncc(C)c1 (single isomer, unassigned) [Example 394.0, (1S,2R)—N-(4-(2,6-dimethoxyphenyl)-5-(5-methylpyridin-3-yl)-4H-1,2,4-triazol-3-yl)-1-(2-hydroxyethoxy)-1-(5-methylpyrimidin-2-yl)propane-2-sulfonamide or (1R,2S)—N-(4-(2,6-dimethoxyphenyl)-5-(5-methylpyridin-3-yl)-4H-1,2,4-triazol-3-yl)-1-(2-hydroxyethoxy)-1-(5-methylpyrimidin-2-yl)propane-2-sulfonamide] | 12
3 | COc1cccc(OC)c1-n1c(NS(=O)(=O)[C@H](C)[C@@H](OCCO)c2ncc(C)cn2)nnc1-c1cncc(C)c1 (single isomer, unassigned) [Example 395.0, (1S,2R)—N-(4-(2,6-dimethoxyphenyl)-5-(5-methylpyridin-3-yl)-4H-1,2,4-triazol-3-yl)-1-(2-hydroxyethoxy)-1-(5-methylpyrimidin-2-yl)propane-2-sulfonamide or (1R,2S)—N-(4-(2,6-dimethoxyphenyl)-5-(5-methylpyridin-3-yl)-4H-1,2,4-triazol-3-yl)-1-(2-hydroxyethoxy)-1-(5-methylpyrimidin-2-yl)propane-2-sulfonamide] | 0.11
4 | COc1cccc(OC)c1-n1c(NS(=O)(=O)[C@H](C)[C@@H](OC[C@H](C)O)c2ncc(C)cn2)nnc1-c1cncc(C)c1 (single isomer, unassigned) [Example 400.0] | 17
5 | COc1cccc(OC)c1-n1c(NS(=O)(=O)[C@H](C)[C@@H](OC[C@H](C)O)c2ncc(C)cn2)nnc1-c1cncc(C)c1 (single isomer, unassigned) [Example 401.0] | 21
6 | COc1cccc(OC)c1-n1c(NS(=O)(=O)[C@H](C)[C@@H](OC[C@H](C)O)c2ncc(C)cn2)nnc1-c1cncc(C)c1 (single isomer, unassigned) [Example 402.0] | 0.86
7 | COc1cccc(OC)c1-n1c(NS(=O)(=O)[C@H](C)[C@@H](OC[C@H](C)O)c2ncc(C)cn2)nnc1-c1cncc(C)c1 (single isomer, unassigned) [Example 403.0] | 0.21
8 | COc1cccc(OC)c1-n1c(NS(=O)(=O)[C@@H](C)[C@@H](OCCO)c2ncc(C)cn2)nnc1-c1cncc(C)c1 (single isomer, unassigned) [Example 408.0, (1S,2S)—N-(4-(2,6-dimethoxyphenyl)-5-(5-methylpyridin-3-yl)-4H-1,2,4-triazol-3-yl)-1-(2-hydroxyethoxy)-1-(5-methylpyrimidin-2-yl)propane-2-sulfonamide or (1R,2R)—N-(4-(2,6-dimethoxyphenyl)-5-(5-methylpyridin-3-yl)-4H-1,2,4-triazol-3-yl)-1-(2-hydroxyethoxy)-1-(5-methylpyrimidin-2-yl)propane-2-sulfonamide] | 0.88
9 | COc1cccc(OC)c1-n1c(NS(=O)(=O)[C@@H](C)[C@@H](OCCO)c2ncc(C)cn2)nnc1-c1cncc(C)c1 (single isomer, unassigned) [Example 409.0, (1S,2S)—N-(4-(2,6-dimethoxyphenyl)-5-(5-methylpyridin-3-yl)-4H-1,2,4-triazol-3-yl)-1-(2-hydroxyethoxy)-1-(5-methylpyrimidin-2-yl)propane-2-sulfonamide or (1R,2R)—N-(4-(2,6-dimethoxyphenyl)-5-(5-methylpyridin-3-yl)-4H-1,2,4-triazol-3-yl)-1-(2-hydroxyethoxy)-1-(5-methylpyrimidin-2-yl)propane-2-sulfonamide] | 29
10 | COc1cccc(-c2nnc(NS(=O)(=O)[C@H](C)[C@@H](OCCO)c3ncc(C)cn3)n2-c2c(OC)cccc2OC)n1 (single isomer, unassigned) [Example 415.0, (1S,2R)—N-(4-(2,6-dimethoxyphenyl)-5-(6-methoxypyridin-2-yl)-4H-1,2,4-triazol-3-yl)-1-(2-hydroxyethoxy)-1-(5-methylpyrimidin-2-yl)propane-2-sulfonamide or (1R,2S)—N-(4-(2,6-dimethoxyphenyl)-5-(6-methoxypyridin-2-yl)-4H-1,2,4-triazol-3-yl)-1-(2-hydroxyethoxy)-1-(5-methylpyrimidin-2-yl)propane-2-sulfonamide] | 8.9
11 | COc1cccc(-c2nnc(NS(=O)(=O)[C@H](C)[C@@H](OCCO)c3ncc(C)cn3)n2-c2c(OC)cccc2OC)n1 (single isomer, unassigned) [Example 416.0, (1S,2R)—N-(4-(2,6-dimethoxyphenyl)-5-(6-methoxypyridin-2-yl)-4H-1,2,4-triazol-3-yl)-1-(2-hydroxyethoxy)-1-(5-methylpyrimidin-2-yl)propane-2-sulfonamide or (1R,2S)—N-(4-(2,6-dimethoxyphenyl)-5-(6-methoxypyridin-2-yl)-4H-1,2,4-triazol-3-yl)-1-(2-hydroxyethoxy)-1-(5-methylpyrimidin-2-yl)propane-2-sulfonamide] | 0.26
12 | COc1cccc(-c2nnc(NS(=O)(=O)[C@@H](C)[C@H](O)C(C)(C)C)n2-c2c(OC)cccc2OC)n1 (single isomer, unassigned) [Example 434.0, (2S,3R)—N-(4-(2,6-dimethoxyphenyl)-5-(6-methoxy-2-pyridinyl)-4H-1,2,4-triazol-3-yl)-3-hydroxy-4,4-dimethyl-2-pentanesulfonamide or (2R,3S)—N-(4-(2,6-dimethoxyphenyl)-5-(6-methoxy-2-pyridinyl)-4H-1,2,4-triazol-3-yl)-3-hydroxy-4,4-dimethyl-2-pentanesulfonamide] | 120
13 | COc1cccc(-c2nnc(NS(=O)(=O)[C@@H](C)[C@@H](O)C(C)(C)C)n2-c2c(OC)cccc2OC)n1 (single isomer, unassigned) [Example 435.0, (2S,3S)—N-(4-(2,6-dimethoxyphenyl)-5-(6-methoxy-2-pyridinyl)-4H-1,2,4-triazol-3-yl)-3-hydroxy-4,4-dimethyl-2-pentanesulfonamide or (2R,3R)—N-(4-(2,6-dimethoxyphenyl)-5-(6-methoxy-2-pyridinyl)-4H-1,2,4-triazol-3-yl)-3-hydroxy-4,4-dimethyl-2-pentanesulfonamide] | 24
14 | COc1cccc(-c2nnc(NS(=O)(=O)[C@@H](C)[C@@H](O)C(C)(C)C)n2-c2c(OC)cccc2OC)n1 (single isomer, unassigned) [Example 436.0, (2S,3S)—N-(4-(2,6-dimethoxyphenyl)-5-(6-methoxy-2-pyridinyl)-4H-1,2,4-triazol-3-yl)-3-hydroxy-4,4-dimethyl-2-pentanesulfonamide or (2R,3R)—N-(4-(2,6-dimethoxyphenyl)-5-(6-methoxy-2-pyridinyl)-4H-1,2,4-triazol-3-yl)-3-hydroxy-4,4-dimethyl-2-pentanesulfonamide] | 100
15 | COc1cccc(-c2nnc(NS(=O)(=O)[C@@H](C)[C@H](O)C(C)(C)C)n2-c2c(OC)cccc2OC)n1 (single isomer, unassigned) [Example 437.0, (2S,3R)—N-(4-(2,6-dimethoxyphenyl)-5-(6-methoxy-2-pyridinyl)-4H-1,2,4-triazol-3-yl)-3-hydroxy-4,4-dimethyl-2-pentanesulfonamide or (2R,3S)—N-(4-(2,6-dimethoxyphenyl)-5-(6-methoxy-2-pyridinyl)-4H-1,2,4-triazol-3-yl)-3-hydroxy-4,4-dimethyl-2-pentanesulfonamide] | 31
16 | COc1cccc(-c2nnc(NS(=O)(=O)[C@@H](C)[C@H](O)C3CC3)n2-c2c(OC)cccc2OC)n1 (single isomer, unassigned) [Example 439.0, (1R,2S)-1-cyclopropyl-N-(4-(2,6-dimethoxyphenyl)-5-(6-methoxy-2-pyridinyl)-4H-1,2,4-triazol-3-yl)-1-hydroxy-2-propanesulfonamide or (1S,2R)-1-cyclopropyl-N-(4-(2,6-dimethoxyphenyl)-5-(6-methoxy-2-pyridinyl)-4H-1,2,4-triazol-3-yl)-1-hydroxy-2-propanesulfonamide] | 110
17 | COc1cccc(OC)c1-n1c(NS(=O)(=O)C[C@H](O)c2ccc(Cl)cc2S(C)(=O)=O)nnc1-c1cncc(C)c1 (single isomer, unassigned) [Example 458.0, (2R)-2-(4-chloro-2-(methylsulfonyl)phenyl)-N-(4-(2,6-dimethoxyphenyl)-5-(5-methyl-3-pyridinyl)-4H-1,2,4-triazol-3-yl)-2-hydroxyethanesulfonamide or (2S)-2-(4-chloro-2-(methylsulfonyl)phenyl)-N-(4-(2,6-dimethoxyphenyl)-5-(5-methyl-3-pyridinyl)-4H-1,2,4-triazol-3-yl)-2-hydroxyethanesulfonamide] | 0.16
18 | COc1cccc(-c2nnc(NS(=O)(=O)[C@@H](C)[C@H](OC)c3ccc(C#N)cc3C#N)n2-c2c(OC)cccc2OC)n1 (single isomer, unassigned) [Example 474.0, (1R,2S)-1-(2,4-dicyanophenyl)-N-(4-(2,6-dimethoxyphenyl)-5-(6-methoxy-2-pyridinyl)-4H-1,2,4-triazol-3-yl)-1-methoxy-2-propanesulfonamide or (1S,2R)-1-(2,4-dicyanophenyl)-N-(4-(2,6-dimethoxyphenyl)-5-(6-methoxy-2-pyridinyl)-4H-1,2,4-triazol-3-yl)-1-methoxy-2-propanesulfonamide] | 0.35
